# From patent US12528794B2, “MAO-B inhibitor DRG-MAOB-1 for use in treatment of neurodegenerative diseases” (BAHCESEHIR UNIVERSITESI, priority 2020, dated 2026)
# Tests used:
# [1] = target: T1, human MAO-B (Homo sapiens, UniProt P27338); experiment: MAO inhibitory assay (kynuramine, fluorescence), MAO-B; type: biochemical
# T1 sequence (P27338 1-520): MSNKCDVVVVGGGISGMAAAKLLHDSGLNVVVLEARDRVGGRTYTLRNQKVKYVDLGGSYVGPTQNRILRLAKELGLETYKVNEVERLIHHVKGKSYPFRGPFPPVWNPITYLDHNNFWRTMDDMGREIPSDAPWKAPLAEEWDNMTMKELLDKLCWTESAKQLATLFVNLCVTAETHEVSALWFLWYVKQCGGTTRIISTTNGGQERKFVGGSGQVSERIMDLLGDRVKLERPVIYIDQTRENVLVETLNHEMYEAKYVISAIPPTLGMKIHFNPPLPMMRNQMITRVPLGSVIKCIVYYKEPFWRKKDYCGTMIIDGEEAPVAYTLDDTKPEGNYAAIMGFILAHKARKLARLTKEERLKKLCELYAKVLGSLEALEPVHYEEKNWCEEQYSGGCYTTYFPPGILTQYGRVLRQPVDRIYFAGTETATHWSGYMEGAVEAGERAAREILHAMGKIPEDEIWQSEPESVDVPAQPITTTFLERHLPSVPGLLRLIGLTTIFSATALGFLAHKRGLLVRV
# Description: (§1) MAO inhibitory activity was assayed using the method of Novaroli et al. with minor modifications. Briefly, 140 μL of 0.1 M potassium phosphate buffer (pH 7.4), 8 μL of 0.75 mM kynuramine, and 2 μL of a dimethyl sulfoxide (DMSO) inhibitor solution (final DMSO concentration of 1% (v/v) and final concentrations of the inhibitors of 0-1 μM), were preincubated at 37° C. for 10 min. Diluted human recombinant enzyme (50 μL) was then added to obtain a final protein concentration of 0.0075 mg/mL (MAO-A) or 0.015 mg/mL (MAO-B) in the assay mixture. The reaction mixture was further incubated at 37° C. and the reaction was stopped after 20 min by the addition of 75 μL of 2 M NaOH. The product generated by MAO, 4-quinolinol, is fluorescent and was measured at Ex 310 nm/Em 400 nm using a microplate reader (Thermo Scientific-Multiskan GO). Each data points of samples were triplicate. The sample solution was replaced with DMSO to provide a negative control. The IC50 values were calculated from a line through two points which sandwiched the point of 50% (IC50) by plotting the remained activity (%) related to control (100%) versus the logarithm of the inhibitor concentration to obtain a sigmoidal dose-response curve
# [2] = target: T2, human MAO-A (Homo sapiens, UniProt P21397); experiment: MAO inhibitory assay (kynuramine, fluorescence), MAO-A; type: biochemical; conditions: human recombinant enzyme, kynuramine substrate, 37° C., triplicate
# T2 sequence (P21397 1-527): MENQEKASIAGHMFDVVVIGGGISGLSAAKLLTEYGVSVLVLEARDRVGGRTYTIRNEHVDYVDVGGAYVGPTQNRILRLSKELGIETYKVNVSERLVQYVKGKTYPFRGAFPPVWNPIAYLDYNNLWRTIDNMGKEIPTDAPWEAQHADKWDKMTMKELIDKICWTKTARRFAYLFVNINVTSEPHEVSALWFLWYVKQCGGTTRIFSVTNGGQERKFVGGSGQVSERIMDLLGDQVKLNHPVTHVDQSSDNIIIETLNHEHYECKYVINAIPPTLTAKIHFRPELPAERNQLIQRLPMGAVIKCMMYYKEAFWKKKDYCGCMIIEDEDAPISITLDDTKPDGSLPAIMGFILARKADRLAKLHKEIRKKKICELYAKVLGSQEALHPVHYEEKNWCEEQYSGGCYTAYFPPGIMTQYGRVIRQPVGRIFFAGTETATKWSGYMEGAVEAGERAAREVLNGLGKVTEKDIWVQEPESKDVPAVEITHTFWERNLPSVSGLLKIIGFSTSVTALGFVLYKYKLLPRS
# Description: as §1
structure (smiles),measurement,setting,value
Cn1nc(C(=O)NCCc2nc3ccccc3[nH]2)c2ccccc21 (racemic) [compound of formula I],fold more potent binding to MOA-B compared to MOA-A,"[1]; MAO-B over MAO-A, from IC50 values",approximately 13 fold
same,IC50,"[1]; human recombinant enzyme, kynuramine substrate, 37° C., triplicate",4.02 ± 0.03 nM
same,IC50,[2],54.8 ± 1.9 nM
